From article PMC6433232, “Targeting mitochondria in cancer therapy could provide a basis for the selective anti-cancer activity” (PLoS ONE, 2019)
Read-outs that look alike come from different tables or passages of the source.

Columns and labels:
[1] = test system: pancreatic cancer MIA PaCa-2 cells; test: cells; conditions: for EC50: Homo sapiens, MIA PaCa-2, read-out: EC50, μM MIA PaCa-2; for improvement in anti-cancer activity: versus compound 4
Procedure: (§1) Fig 1 A, Structure of NSC130362. B, Dose response curve of NSC130362 in MIA PaCa-2 cells. Cells were pre-incubated with NSC130362 for 2 h followed by addition of ATO (5 μM) and incubation for an additional 24 h. At the end of the treatment, the ratio of dead cells was determined by a CellTiterGlo reagent.

in vitro = conditions: human
Procedure: as §1

[2] = test system: human primary hepatocytes; test: cells; conditions: Hepatocyte, read-out: EC50, μM Hepatocytes
Text: (§2) We selected hepatocytes as normal cells because hepatocytes are mediate toxicity to multiple drugs and are used as a standard to assess toxicity of drugs in vitro [28]. […] For comparison with the standard of care, doxorubicin was also included in this analysis.

[3] = test system: human primary hepatocytes; conditions: for times more toxic toward hepatocytes than compound 2: versus compound 2; for EC50: read-out: EC50, μM Hepatocytes ATO, in the presence of ATO (5 μM), SD does not exceed 10%
Text: as §2

| SMILES | EC50 [1] | EC50 [2] | other results |
| --- | --- | --- | --- |
| COc1cccc2c1C(=O)c1c(O)c3c(c(O)c1C2=O)C[C@@](O)(C(=O)CO)C[C@@H]3O[C@H]1C[C@H](N)[C@H](O)[C@H](C)O1 [Doxorubicin, reference compound] | 0.7 µM | 10 µM | selective cytotoxicity index, times less ([1]; human): approximately 25 times; selectivity ratio (in vitro): 3.5 |
| CCCCCCNC1=C(Cl)C(=O)c2ccccc2C1=O [compound 7] | 26.1 µM | > 90 µM |  |
| CCCCCCCCNC1=C(Cl)C(=O)c2ccccc2C1=O [compound 9] | > 90 µM | > 90 µM |  |
| CC(C)NC1=C(Cl)C(=O)c2ccccc2C1=O [compound 10] | 69 µM | > 90 µM |  |
| CCC(C)NC1=C(Cl)C(=O)c2ccccc2C1=O (stereo not shown) [compound 11] | > 90 µM | > 90 µM |  |
| CC(C)CNC1=C(Cl)C(=O)c2ccccc2C1=O [compound 12] | > 90 µM | > 90 µM |  |
| CN(C)C1=C(Cl)C(=O)c2ccccc2C1=O [compound 14, 2-chloro-3-(dimethylamino)-1,4-NQ] | 7.2 µM | 10 µM | times more toxic toward hepatocytes than compound 2 [3]: approximately 2 times |
| O=C1C(Cl)=C(N2CC2)C(=O)c2ccccc21 [compound 15, 2-chloro-3-(aziridin-1-yl)-1,4-NQ] | 2.3 µM | 2.6 µM | times more toxic toward hepatocytes than compound 2 [3]: ~6.5 times |
| O=C1C(Cl)=C(NCCCO)C(=O)c2ccccc21 [compound 18] | 27.5 µM | 75.3 µM | increase in toxicity to hepatocytes ([3]; versus compound 17): approximately 3 fold |
| CC(O)CNC1=C(Cl)C(=O)c2ccccc2C1=O (stereo not shown) [compound 19] | 24.9 µM |  | increase in toxicity to hepatocytes ([3]; versus compound 17): approximately 3 fold |
| O=C1C(Cl)=C(NC(CO)(CO)CO)C(=O)c2ccccc21 [compound 20] | > 90 µM | 47.8 µM | loss in anti-cancer activity ([1]; versus compound 13): approximately 50 fold; loss in toxicity to hepatocytes ([3]; versus compound 13): approximately 2 fold |
| COCCCNC1=C(Cl)C(=O)c2ccccc2C1=O [compound 22] | 39 µM | 90 µM | decrease in anti-cancer activity ([1]; versus compound 21): 4 fold; increase in toxicity to hepatocytes ([3]; versus compound 4): approximately 3 fold |
| CCOCCNC1=C(Cl)C(=O)c2ccccc2C1=O [compound 24] | 55.4 µM | 67.8 µM |  |
| CC(C)OCCCNC1=C(Cl)C(=O)c2ccccc2C1=O [compound 25] | 82.1 µM | 60.8 µM |  |
| CN(C)CCCNC1=C(Cl)C(=O)c2ccccc2C1=O [compound 27] | 0.9 µM | 24.1 µM | improvement in anti-cancer activity [1]: 10.8 fold; increase in toxicity to hepatocytes ([3]; versus compound 4): 9.2 fold |
| O=C1C(Cl)=C(NCCCN(CCO)CCO)C(=O)c2ccccc21 [compound 28] | 9.2 µM | 48.5 µM | improvement in anti-cancer activity [1]: 4.6 fold; increase in toxicity to hepatocytes ([3]; versus compound 4): 3.0 fold |
| CC(=O)NC1=C(Cl)C(=O)c2ccccc2C1=O [compound 29] | 5.4 µM | 9.7 µM |  |
| CCC(=O)NC1=C(Cl)C(=O)c2ccccc2C1=O [compound 30] | 5.7 µM | 3.6 µM |  |
| O=C(CCl)NC1=C(Cl)C(=O)c2ccccc2C1=O [compound 33] | 7.9 µM | 25.4 µM | decrease in anti-cancer activity ([1]; versus compound 29): 2 fold |
| O=C(O)CNC1=C(Cl)C(=O)c2ccccc2C1=O [compound 34] | 18.1 µM | 11.8 µM |  |

| SMILES | EC50 [1] | EC50 [2] | other results |
| --- | --- | --- | --- |
| O=C1C(Cl)=C(NNC(=O)C(F)(F)F)C(=O)c2ccccc21 [compound 35] | 8 µM | 11.5 µM |  |
| O=C1C(Cl)=C(Nc2ccccn2)C(=O)c2ccccc21 [compound 37] | 5.2 µM | 6 µM |  |
| Cc1ccc(NC2=C(Cl)C(=O)c3ccccc3C2=O)cc1 [compound 41] | 2.5 µM | 8.4 µM |  |
| O=C1C(Cl)=C(Nc2ccc(F)cc2)C(=O)c2ccccc21 [compound 42] | 3.2 µM | 10 µM |  |
| O=C1C(Cl)=C(Nc2ccc(Cl)cc2)C(=O)c2ccccc21 [compound 43] | > 90 µM | > 90 µM |  |
| O=C1C(Cl)=C(Nc2cccc(Cl)c2)C(=O)c2ccccc21 [compound 44] | 7 µM | 5.3 µM |  |
| O=C1C(Cl)=C(Nc2ccc(O)cc2)C(=O)c2ccccc21 [compound 45] | 2.5 µM | 2.6 µM |  |
| [N-]=[N+]=NC1=C(Cl)C(=O)c2ccccc2C1=O [compound 46] | 5.2 µM | 2.9 µM |  |
| CC1CCCC(C)N1C1=C(Cl)C(=O)c2ccccc2C1=O (stereo not shown) [compound 47] | 7 µM | 9 µM |  |
| NC1=CC(=O)c2ccccc2C1=O [compound 48, 3-amino-1,4-NQ] | 24.4 µM | 28.1 µM | increase in toxicity to hepatocytes ([3]; versus compound 1): approximately 3 fold |
| CCNC1=CC(=O)c2ccccc2C1=O [compound 49] | > 90 µM | > 90 µM |  |
| CCCNC1=CC(=O)c2ccccc2C1=O [compound 50] | > 90 µM | > 90 µM |  |
| CCCCNC1=CC(=O)c2ccccc2C1=O [compound 51] | > 90 µM | > 90 µM |  |
| CC(C)CNC1=CC(=O)c2ccccc2C1=O [compound 52] | > 90 µM | > 90 µM |  |
| O=C1C=CC(=O)c2ccccc21 [compound 56, 1,4-NQ, reference compound] | 9.2 µM | 1.8 µM |  |
| O=C1C=C(NCCNCCO)C(=O)c2ccccc21 [compound 57] | > 90 µM | 83.2 µM |  |
| O=C1C=C(N2CCCCC2)C(=O)c2ccccc21 [compound 58] | 52 µM | 90 µM |  |
| CCN(CC)C1=CC(=O)c2ccccc2C1=O [compound 59] | 90 µM | 90 µM |  |
| CC1=CC(=O)c2ccccc2C1=O [compound 61, 3-methyl-1,4-NQ, reference compound] | 7.8 µM | 11.8 µM | improved anti-cancer activity ([1]; versus 1,4-NQ (compound 56)): 1.5 fold; selectivity ratio (in vitro): 10.4; times less toxic to hepatocytes [3]: approximately 5 times; EC50 [3]: 15.6 µM |
| NC1=C(Br)C(=O)c2ncccc2C1=O [compound 65] | 1.8 µM | 8.6 µM | EC50 [3]: 4.1 µM |
